In patent US8834929B2, “Drying of drug-containing particles” (Bend Research, Inc., priority 2006, dated 2014):
≈ marks a conversion by molar mass, not a printed value.

What was measured:
[1] = Aqueous solubility of the drug; assay type: physicochemical
[2] = In vitro dissolution test (microcentrifuge, PBS pH 6.5); assay type: physicochemical; conditions: PBS pH 6.5, 290 mOsm/kg, 37° C., 3000 μg/mL Drug 3 if all dissolved; Dispersion 4 before secondary drying; crystalline drug alone
Procedure: A sample of Dispersion 4 was evaluated before and after secondary drying in an in vitro dissolution test to determine the effect of drying on concentration enhancement. For this test, a sufficient amount of Dispersion 4 was added to microcentrifuge test tubes so that the concentration of Drug 3 would have been 3000 μg/mL had all of the drug had dissolved. The test was performed in duplicate. The tubes were placed in a 37° C. temperature-controlled chamber, and 1.8 mL PBS at pH 6.5 and 290 mOsm/kg was added to each tube. The samples were mixed using a vortex mixer for about 60 seconds. The samples were centrifuged at 13,000 G at 37° C. for 1 minute. The resulting supernatant solution was then sampled and diluted 1:6 (by volume) with methanol and then analyzed by high performance liquid chromatography (HPLC). The contents of each tube were mixed on the vortex mixer and allowed to stand undisturbed at 37° C. until the next sample was taken. Samples were collected at 4, 10, 20, 40, 90, and 1200 minutes. For comparison, crystalline Drug 3 alone was tested using the same procedures.
The concentrations of drug obtained in these samples were used to determine the maximum concentration of drug (MDC90) and the area under the concentration-versus-time curve (AUC90) during the initial 90 minutes.

Row | solubility [1] | AUC90 (area under the concentration-versus-time curve during the initial 90 minutes) [2] | MDC90 (maximum concentration of drug during the initial 90 minutes) [2] | Structure (SMILES)
1 | ~80 µg/mL (≈ 175 µM) |  |  | O=C(N[C@@H](Cc1ccccc1)[C@H](O)C(=O)N1C[C@@H](O)[C@@H](O)C1)c1cc2cc(Cl)ccc2[nH]1 [Drug 1, 5-chloro-1H-indole-2-carboxylic acid [(1S)-benzyl-(2R)-hydroxy-3-((3R,4S)-dihydroxy-pyrrolidin-1-yl-)-3-oxypropyl]amide]
2 | ~1600 µg/mL (≈ 3130 µM) | 9200 µg·min/mL | 112 µg/mL | C=CCNC(=O)[C@H]1N(C(=O)[C@@H](O)[C@H](Cc2ccccc2)NC(=O)c2cccc(O)c2C)CSC1(C)C [Drug 3, (4R)—N-allyl-3-{(2S,3S)-2-hydroxy-3-[(3-hydroxy-2-methylbenzoyl)amino]-4-phenylbutanoyl}-5,5-dimethyl-1,3-thiazolidine-4-carboxamide]
3 | < 0.1 µg/mL |  |  | CCOC(=O)N1c2ccc(C(F)(F)F)cc2[C@@H](N(Cc2cc(C(F)(F)F)cc(C(F)(F)F)c2)C(=O)OC)C[C@H]1CC [Drug 2, torcetrapib, reference compound]
